In PubChem BioAssay (NCI):
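A five-concentration, 48-hour dose response in 96-well plates underlies each endpoint, interpolated linearly between surrounding concentrations. TGI is the concentration that stops growth completely.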

Assays:
Assay in all cases: NCI anticancer screen, dose series, 48 h
CAKI-1 renal = tested on: CAKI-1 renal
MOLT-4 leukemia = tested on: MOLT-4 leukemia
HCT-116 colon = tested on: HCT-116 colon
M14 melanoma = tested on: M14 melanoma
MDA-MB-435 = tested on: MDA-MB-435
SR leukemia = tested on: SR leukemia
SW-620 colon = tested on: SW-620 colon
SN12C renal = tested on: SN12C renal
SF-295 CNS = tested on: SF-295 CNS
A549 NSCLC = tested on: A549 NSCLC
MDA-N = tested on: MDA-N
UO-31 renal = tested on: UO-31 renal
UACC-257 melanoma = tested on: UACC-257 melanoma
HOP-92 NSCLC = tested on: HOP-92 NSCLC
NCI/ADR-RES ovarian = tested on: NCI/ADR-RES ovarian
A498 renal = tested on: A498 renal
ACHN renal = tested on: ACHN renal
DU-145 prostate = tested on: DU-145 prostate
SK-MEL-5 melanoma = tested on: SK-MEL-5 melanoma
HL-60(TB) leukemia = tested on: HL-60(TB) leukemia
SK-OV-3 ovarian = tested on: SK-OV-3 ovarian
OVCAR-4 ovarian = tested on: OVCAR-4 ovarian
CCRF-CEM leukemia = tested on: CCRF-CEM leukemia
K-562 leukemia = tested on: K-562 leukemia
NCI-H226 lung = tested on: NCI-H226 lung
COLO 205 colon = tested on: COLO 205 colon
786-0 renal = tested on: 786-0 renal
SF-539 CNS = tested on: SF-539 CNS
HS 578T breast = tested on: HS 578T breast
HT29 colon = tested on: HT29 colon
HCC-2998 colon = tested on: HCC-2998 colon
HOP-62 NSCLC = tested on: HOP-62 NSCLC
SNB-19 CNS = tested on: SNB-19 CNS
SK-MEL-28 melanoma = tested on: SK-MEL-28 melanoma
MDA-MB-231 breast = tested on: MDA-MB-231 breast
NCI-H460 lung = tested on: NCI-H460 lung
MALME-3M melanoma = tested on: MALME-3M melanoma
OVCAR-5 ovarian = tested on: OVCAR-5 ovarian
T-47D breast = tested on: T-47D breast
MCF7 breast = tested on: MCF7 breast
OVCAR-3 ovarian = tested on: OVCAR-3 ovarian
RXF 393 renal = tested on: RXF 393 renal
KM12 colon = tested on: KM12 colon
NCI-H522 lung = tested on: NCI-H522 lung
LOX IMVI melanoma = tested on: LOX IMVI melanoma
OVCAR-8 ovarian = tested on: OVCAR-8 ovarian
RPMI-8226 leukemia = tested on: RPMI-8226 leukemia
TK-10 renal = tested on: TK-10 renal
IGROV1 ovarian = tested on: IGROV1 ovarian
PC-3 prostate = tested on: PC-3 prostate
SF-268 CNS = tested on: SF-268 CNS
NCI-H23 lung = tested on: NCI-H23 lung
SNB-75 CNS = tested on: SNB-75 CNS
EKVX NSCLC = tested on: EKVX NSCLC
HCT-15 colon = tested on: HCT-15 colon
U251 CNS = tested on: U251 CNS

Measured: TGI

CC(C)=CCN(N=O)c1ncnc2nc[nH]c12
not listed: HCT-15 colon | U251 CNS
> 100 µM: all other assays above

COc1cc(OC)c(CSCC(NC(=O)OCC2c3ccccc3-c3ccccc32)C(=O)O)c(OC)c1 (configuration not stated)
not listed: MOLT-4 leukemia | SR leukemia | UACC-257 melanoma | HL-60(TB) leukemia | SK-OV-3 ovarian | CCRF-CEM leukemia | K-562 leukemia | 786-0 renal | HS 578T breast | HCC-2998 colon | HOP-62 NSCLC | NCI-H460 lung | MALME-3M melanoma | T-47D breast | MCF7 breast | NCI-H522 lung | LOX IMVI melanoma | RPMI-8226 leukemia
> 10 µM: all other assays above
